Experimental data reported in patent US7528144B2, “Molecules and methods for fluorescence microscopy” (WiSys Technology Foundation, Inc., priority 2005, dated 2009).

System: THP-1 cells
Test: Photobleaching under repeated exposures in cells
Assay type: cell-based
Conditions: 75-200 nM, repeated CCD exposures (FIG. 25)
Protocol: FIG. 25 depicts (A) InstantLyso LLT-1 at 75 nM in THP-1 cells. Exposures were taken every 30 seconds (with consistent CCD exposure length 7.5 seconds) with blue excitation cube (490 nm maximum).; (B) InstantGolgi McN-1 at 200 nm in THP-1 cells. Exposures were taken with consistent CCD exposure length with purple excitation cube.; (C) InstantLipo Sep-1at 200 nm in THP-1 cells. Exposures were taken with consistent CCD exposure length with purple excitation cube; and (D) Lysotracker Red at 75 nM in THP-1 cells. Exposures were taken every 5 seconds (with consistent CCD exposure length) with green excitation cube. Unretouched, unprocessed images.
The dyes of the present invention hold up well to photobleaching relative to the time needed to take most fluorescence shots (a few seconds).

CCCCCCN1C(=O)c2cccc3c(NCCN)ccc(c23)C1=O [InstantLyso LLT-1, 6-(2-aminoethyl)amino-2-hexyl-1H-benz[de]isoquinoline-1,3-(2H)-dione]
resistance to photobleaching: holds up much better than the others
